In patent US20260049072A1, “HETEROCYCLIC COMPOUND FOR INDUCING DEGRADATION OF MUTANT KRAS PROTEIN” (Astellas Pharma Inc., priority 2022, published 2026) one finds IC50 data, which are given here for four molecules.

For test [1], the system named is phosphorylation of ERK (Thr202/Tyr204). Kind of test: ERK phosphorylation inhibitory activity, cell ELISA, PA-TU-8902. The settings on record: Homo sapiens, PaTu 8902; PA-TU-8902 cells, 24 hours, 100% = 300 nM trametinib; read-out: IC50 (ERK phosphorylation inhibition). In kind it is cell-based. On the technique in general: An ELISA detects its analyte on a solid surface through an enzyme-linked reagent.

Test [2] deals with MIA PaCa-2 cells. Kind of test: Non-anchorage-dependent cell growth inhibition (spheroid 3D culture), MIA PaCa-2. In kind it is cell-based. The settings on record: Homo sapiens, MIA PaCa-2, 144 h; KRAS G12C mutant-positive, 3D spheroid, six days, CellTiter-Glo 2.0; read-out: MIA PaCa-2 IC50. In outline:
(§1)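 Human pancreatic lines (PA-TU-8902 KRAS G12V, AsPC-1 G12D, MIA PaCa-2 G12C) grown as spheroids at 5×10^2 cells/well in low-adhesion round-bottom plates; MIA PaCa-2 in RPMI-1640 with 10% FBS. Compounds added next day (6-9 points, 3 μM to 0.3 nM final) for six days at 37 °C, 5% CO2. CellTiter-Glo luminescence, IC50 by Sigmoid-Emax regression versus DMSO and cell-free controls.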
(In general: In ATP-based viability assays light output follows the ATP content of the culture.)

Test [3] deals with AsPC-1 cells. Kind of test: Non-anchorage-dependent cell growth inhibition (spheroid 3D culture), AsPC-1. In kind it is cell-based. The following applies: Homo sapiens, ASPC1, 144 h; KRAS G12D mutant-positive, 3D spheroid, six days, CellTiter-Glo 2.0; read-out: AsPC-1 IC50. In outline:
as §1

The subject of test [4] is PA-TU-8902 cells. Kind of test: Non-anchorage-dependent cell growth inhibition (spheroid 3D culture), PA-TU-8902. The class given is cell-based, human. The settings on record: Homo sapiens, PaTu 8902, 144 h; KRAS G12V mutant-positive, 3D spheroid, six days, CellTiter-Glo 2.0; read-out: PA-TU-8902 IC50. The method, boiled down:
as §1

Broadly, the IC50 is the concentration needed to halve the response being measured.

Turning to `CO[C@@H](C)COc1nc(N[C@H]2C[C@H](OCCN(C)C)C2)c2cc(C3CC3)c(-c3c(C)c(F)cc4[nH]ncc34)c(OCc3ccc(-c4cn([C@H](C(=O)N5C[C@H](O)C[C@H]5C(=O)N[C@@H](CO)c5ccc(-c6scnc6C)cc5)C(C)C)nn4)cc3)c2n1` (atropisomer, axis not shown) [Example 23], the IC50 came to 107 nM in test [1], 17 nM in test [2], 9 nM in test [3] and 182 nM in test [4].

For `CO[C@@H](C)COc1nc(OC2CN(C(=O)NCCN(C)C)C2)c2cc(C3CC3)c(-c3c(C)c(F)cc4[nH]ncc34)c(OCc3ccc(-c4cn([C@H](C(=O)N5C[C@H](O)C[C@H]5C(=O)N[C@@H](CO)c5ccc(-c6scnc6C)cc5)C(C)C)nn4)cc3)c2n1` (atropisomer, axis not shown) [Example 17], the IC50 in test [1] is 23 nM; in test [2], 10 nM; in test [3], 16 nM; in test [4], 46 nM.

Consider `CO[C@@H](C)COc1nc(N2CCOCC2)c2cc(C3CC3)c(-c3c(C)c(F)cc4[nH]ncc34)c(OCc3ccc(-c4cn([C@H](C(=O)N5C[C@H](O)C[C@H]5C(=O)N[C@@H](CO)c5ccc(-c6scnc6C)cc5)C(C)C)nn4)cc3)c2n1` (atropisomer, axis not shown) [Example 21], for which the IC50 in test [1] amounted to 19 nM; in test [2], 11 nM; in test [3], 43 nM; in test [4] it was 60 nM.

For `Cc1ncsc1-c1ccc([C@H](CO)NC(=O)[C@@H]2C[C@@H](O)CN2C(=O)[C@H](C(C)C)n2cc(-c3ccc(COc4c(-c5c(C)c(F)cc6[nH]ncc56)c(C5CC5)cc5c(NC6CN(c7ncccn7)C6)nc(OC6CCOCC6)nc45)cc3)nn2)cc1` [Example 15, (4R)-1-[(2S)-2-{4-[4-({[(7M)-6-cyclopropyl-7-(6-fluoro-5-methyl-1H-indazol-4-yl)-2-[(oxan-4-yl)oxy]-4-{[1-(pyrimidin-2-yl)azetidin-3-yl]amino}quinazolin-8-yl]oxy}methyl)phenyl]-1H-1,2,3-triazol-1-yl}-3-methylbutanoyl]-4-hydroxy-N-{(1R)-2-hydroxy-1-[4-(4-methyl-1,3-thiazol-5-yl)phenyl]ethyl}-L-prolinamide], the IC50 in test [1] worked out at 42 nM; in test [2], 6 nM; in test [3], 126 nM; in test [4], 161 nM.
